Measured values taken from US20120149766A1, “DIETARY AND PHARMACEUTICAL COMPOSITIONS COMPRISING A SAGE EXTRACT CONTAINING A MIXTURE OF TRICYCLIC […] THEIR DERIVATIVES AND THEIR USES” (DSM IP ASSETS B.V., priority 2006, published 2012).
Read-outs that look alike come from different tables or passages of the source.

What was measured:
mouse [1] = assay: Light-dark box test in the mouse; format: in vivo
Description: The method, which detects anxiolytic activity, follows that described by Crawley (1981, Pharmacol. Biochem. Behav., 15:695-699). Anxiolytics increase the time spent in the light compartment.
Animals were placed in the light compartment of a two-compartment box with one half light and open (25×27×27 cm) and the other half dark and closed (20×27×27 cm). The time spent in each compartment as well as the number of times the animal crossed from one side to the other was scored during a 3-min test. 15 mice were studied per group. The test was performed blind.
Clobazam (32 mg/kg p.o., dispersed in 0.2% w/v hydroxypropylmethyl cellulose in distilled water), administered 1 h before the test, was used as reference substance. Mice in this group received additional administrations of vehicle at 24 h and 5 h before the test in order to maintain experimental blinding.

mouse [2] = settings: for Number of marbles covered by sawdust, mean ± s.e.m.: 30-min test
Description: Mice (n=15 per treatment group) were individually placed in transparent plastic cages (33×21×18 cm) with 5 cm of sawdust on the floor and 25 marbles (diameter 1 cm) grouped in the centre of the cage. A second, up-turned, cage served as a lid. The number of marbles covered by sawdust (by at least two-thirds) was counted at the end of the 30-min test period. Tests were performed by investigators blind to the drug treatment protocol.
Prior to testing, all test cages and marbles were “impregnated” by leaving 10 naive mice in each cage for 15 minutes.
Sage extract B (30, 100, 300 mg/kg, p.o., 24, 5 and 1 h prior to the test) was thus investigated in the marble burying test to evaluate its potential anxiolytic effects in the mouse. Clobazam, fluoxetine and venlafaxine were used as reference compounds.

[3] = 32 mg/kg p.o. −1 h (vehicle at −24 h, −5 h)
[4] = 32 mg/kg p.o. −1 h (vehicle at −24 h, −5 h), 3-min test
[5] = 32 mg/kg p.o. −1 h (vehicle at −24 h and −5 h)
[6] = 10 mg/kg p.o. −24 h, −5 h and −1 h
[7] = 24 mg/kg p.o. −24 h, −5 h and −1 h

Compound: CN1C(=O)CC(=O)N(c2ccccc2)c2cc(Cl)ccc21 [Clobazam, clobazam]
- Number of crossings, % change from control (mouse [1]; [3]): +6%
- Time spent in light compartment, % change from control (mouse [1]; [3]): +75%
- Number of crossings, mean ± s.e.m. (mouse [1]; [4]): 11.9 ± 1.8 NS
- Time spent in light compartment, mean ± s.e.m. (mouse [1]; [4]): 125.5 ± 6.4 s
- Sedation (animals/group) (mouse [1]; 32 mg/kg p.o., mouse): 2/15
- Number of marbles covered by sawdust, % change from control (mouse [2]; [5]): −84%
- Number of marbles covered by sawdust, mean ± s.e.m. (mouse [2]; [5]): 2.9 ± 1.2

Compound: CNCCC(Oc1ccc(C(F)(F)F)cc1)c1ccccc1 (stereo not shown) [Fluoxetine, fluoxetine]
- Number of marbles covered by sawdust, % change from control (mouse [2]; [6]): −58%
- Number of marbles covered by sawdust, mean ± s.e.m. (mouse [2]; [6]): 7.6 ± 1.6

Compound: COc1ccc(C(CN(C)C)C2(O)CCCCC2)cc1 (stereo not shown) [Venlafaxine, venlafaxine]
- Number of marbles covered by sawdust, % change from control (mouse [2]; [7]): −47%
- Number of marbles covered by sawdust, mean ± s.e.m. (mouse [2]; [7]): 9.5 ± 1.8
- Dead after the first administration (animals/group) (mouse [2]; 24 mg/kg p.o., mouse): #dead after the first administration ( 1/15) and after the second administration ( 1/15).
- Dead after the second administration (animals/group) (mouse [2]; 24 mg/kg p.o., mouse): #dead after the first administration ( 1/15) and after the second administration ( 1/15).
